# Data published in patent US20120225889A1, “USE OF MACROCYCLIC LACTONE DERIVATIVES FOR THE TREATMENT OF INFLAMMATORY DISORDERS” (PIRAMAL LIFE SCIENCES LIMITED, priority 2010, published 2012).
# pIC50: −log10 of the molar value.
# Key:
# IL-6 [1] = assay: Cytokine release assay in hPBMCs: IL-6; format: cell-based; settings: Homo sapiens
# Method: hPBMCs were obtained from healthy donors by centrifugation of heparinized venous blood over Ficoll/Hypaque solution (Histopaque-1077, Sigma, USA). Isolated hPBMCs were suspended in RPMI 1640 culture medium supplemented with 10% FBS and seeded at a density of 50,000 cells/well in a 96-well plate (Nunc, USA). The cells were incubated at 37° C., 5% CO2 for a period of 24 h. These cells were used for the lymphocyte proliferation as well as cytokine release assay.
# The plated cells were treated with different concentrations of the test compound (prepared as mM stock in DMSO and diluted with DMSO to achieve the following final concentrations in the assay: 100, 10, 1, 0.1, 0.01, 0.001, 0.0001, 0.00001 and 0.000001 μM) and incubated for 30 min. The cells were then stimulated with PHA (prepared as 1 mg/mL stock in RPMI 1640 culture medium and used at a final concentration of 5 μg/mL). FK506 was used as a standard. The plates were incubated at 37° C., 5% CO2 for 48 h. The cytokines in the supernatant collected were detected using ELISA kit (BD biosciences, USA). The cytokines evaluated in the assay were TNF-α, IL-2, IL-6, and IFN-γ.
# CEBPα = assay: Gene expression profile using RTQ-PCR: CEBPα; format: cell-based, human; settings: 3 μM
# Method: (§1) The effect of the compound of example 7 was measured in stimulated untreated cells from the monocytic cell line (THP-1), human monocytes and synovial cells from rheumatoid arthritis patient. The effect of the compound in the THP-1 cell line was measured in terms of gene expression and was expressed as fold changes as compared to the cell stimulated control with no drug treatment.
# (§2) THP-1 cells, human monocytes and synovial cells were treated with compound of example 7 or vehicle (0.5% DMSO). Total RNA isolation using a commercial RNA extraction kit (Qiagen Corporation, Germany) The first-strand cDNA was synthesized from total RNA using first strand cDNA synthesis kit from Invitrogen Corporation (California, USA). This was followed by real time quantitative polymerase chain reaction (RTQ PCR) using gene specific primers and standard thermal program of initial denaturation at 95° C. for 5 min and cycles of 95° C. for 10 seconds, followed by 60° C. for 30 seconds (Realplex PCR machine from Eppendorf, Germany). Quantitative measurement of products made during PCR cycles was normalized against a housekeeping gene (Actin) and was used to measure the gene expression as fold changes as compared to respective control.
# MMP13 = assay: Gene expression profile using RTQ-PCR: MMP13; format: cell-based, human; settings: 3 μM
# Method: as §1, §2
# IL-6 [2] = assay: Screening in LPS stimulated THP-1 cells: IL-6; format: cell-based; settings: Homo sapiens, 24 h, ELISA
# Method: IL-6 (BD Biosciences, USA) production by LPS (Escherchia coli 0127:B8, Sigma, USA) in THP-1 cells (ATCC number: TIB202) was designed as in reference, Journal of Immunology, 151, 5631-5638, (1993), the disclosure of which is incorporated by reference for the teaching of the assay.
# THP-1 cells were cultured in RPMI 1640 culture medium (Gibco BRL, UK) containing 100 U/mL penicillin and […] streptomycin, (100× solution, Sigma, USA) containing 10% FBS (JRH Biosciences, USA). 25,000 cells were seeded per well in 96-well plate (Nunc, USA). The cells were differentiated with PMA (Sigma, USA, prepared as 100 μg/mL stock in RPMI and was diluted to 5 ng/mL). The test compound (prepared as 20 mM stock in DMSO and diluted with DMSO to achieve the following final concentrations in the assay: 100, 10, 1, 0.1, 0.01, 0.001 and 0.0001 μM) or vehicle (0.5% DMSO) were added to the cells and the cells were incubated for 30 min at 37° C. LPS (Sigma, USA, prepared as 1 mg/mL stock in PBS) was added to achieve a final concentration of 1 μg/mL. Plates were incubated at 37° C. for 24 h at 5% CO2. Supernatants were harvested, and assayed for TNF-α and IL-6 by ELISA as described by the manufacturer (BD Biosciences, USA). Percent inhibition of cytokine release compared to the control was calculated. The IC50 values were calculated by a nonlinear regression method.
# CEBPβ = assay: Gene expression profile using RTQ-PCR: CEBPβ; format: cell-based, human; settings: 3 μM
# Method: as §1, §2
# [3] = Human monocytes, 3 h, ± SE, N = 3
smiles,measurement,setting,value
"C/C=C/C(O)C(C)/C=C/C(=N\O)C(C)C(O)C(C)C1OC(=O)/C(OC)=C/C(C)=C/C(C)C(O)C(CC)C(O)C(C)C/C(C)=C/C=C/C1OC (stereo not drawn) [Compound of example 7, (3Z,5E,13E,15E)-18-((5Z,6E,10E)-3,9-Dihydroxy-5-(hydroxymino)-4,8-dimethyldodeca-6,10-dien-2-yl)-9-ethyl-8,10-dihydroxy-3,17-dimethoxy-5,7,11,13-tetramethyl oxacyclooctadeca-3,5,13,15-tetraen-2-one]",pIC50,"IL-6 [1]; Table 3: PHA-PMA induced hPBMC's, 48 h, read-out: IL-6 IC50",8.00
same,IC50,"IL-6 [1]; Table 4: mitogen stimulated production from hPBMC's, read-out: IL-6 (IC50 μM)",0.007 nM
same,CEBPα gene expression,CEBPα; [3],−3.9 + 0.4 log fold change
same,CEBPα gene expression,"CEBPα; Synovial cells, 12 h, N = 1",−2.4 log fold change
same,CEBPα gene expression,"CEBPα; THP-1 cells, 12 h, ± SE, N = 3",−2.1 + 2.2 log fold change
same,MMP13 gene expression,MMP13; [3],−2.2 + 2.0 log fold change
same,MMP13 gene expression,"MMP13; Synovial cells, 12 h, N = 1",−4.0 log fold change
same,MMP13 gene expression,"MMP13; THP-1 cells, 12 h, ± SE, N = 3",−4.1 + 3.5 log fold change
same,pIC50,IL-6 [2],7.40
same,CEBPβ gene expression,CEBPβ; [3],−2.2 + 0.3 log fold change
same,CEBPβ gene expression,"CEBPβ; Synovial cells, 12 h, N = 1",0.4 log fold change
same,CEBPβ gene expression,"CEBPβ; THP-1 cells, 12 h, ± SE, N = 3",−0.2 + 0.5 log fold change
